ChEMBL document CHEMBL3259521, “Design, synthesis, and SAR of embelin analogues as the inhibitors of PAI-1 (plasminogen activator inhibitor-1)” (Bioorg Med Chem Lett, 2014)
Activity calls are given as the source filed them. The calls are words filed in the database; no cut-off is given here.

Columns and labels:
[1] = Inhibition of hexa-His-tagged PAI-1 N152H/K156T/Q321L/M356I mutant (unknown origin) expressed in Escherichia coli BL21(DE3) after 10 mins by uPA-based assay; design: species or system Homo sapiens
Homo sapiens [2] = organism: Homo sapiens; experiment: Ratio of embelin IC50 to compound IC50 for hexa-His-tagged PAI-1 N152H/K156T/Q321L/M356I mutant (unknown origin) expressed in Escherichia coli BL21(DE3)
Homo sapiens [3] = organism: Homo sapiens; experiment: Inhibition of hexa-His-tagged PAI-1 N152H/K156T/Q321L/M356I mutant (unknown origin) expressed in Escherichia coli BL21(DE3) at 100 uM after 10 mins by uPA-based assay

Row | Structure (SMILES) | IC50 [1] [nM] | Ratio IC50 (Homo sapiens [2]) | inhibition (Homo sapiens [3])
1 | CCCCC1=C(O)C(=O)C(CCCC)=C(O)C1=O | 7110 | – | –
2 | CCCCCCCC1=C(O)C(=O)C=C(O)C1=O | 3870 | – | –
3 | CCCCCC1=C(O)C(=O)C=C(O)C1=O | 4560 | – | –
4 | CCCCCCCCCC1=C(O)C(=O)C=C(O)C1=O | 1780 | – | –
5 | CCCCCCCCCCCC1=C(OC)C(=O)C=C(OC)C1=O | – | – | inactive
6 | CCCC1=C(O)C(=O)C(CCC)=C(O)C1=O | 5680 | – | –
7 | CCCCCCCCCC1=C(O)C(=O)C(CCCCCCC)=C(O)C1=O | 950 | 5 | –
8 | CCCCCCCCCCCC1=C(O)C(=O)C=C(O)C1=O [EMBELIN] | 4940 | – | –
9 | CCCCCCC1=C(O)C(=O)C=C(O)C1=O | 4180 | – | –
10 | CCCCCCCCCC1=C(O)C(=O)C(Cc2ccccc2)=C(O)C1=O | 770 | 6.5 | –
11 | CCCCCCCCC1=C(O)C(=O)C=C(O)C1=O | 1870 | – | –
12 | CCCCCCCCCCCC1=C(O)C(=O)C=C(OC)C1=O [5-O-METHYLEMBELIN] | 90200 | – | –

Continued, values first:

Row | IC50 [1] [nM] | Ratio IC50 (Homo sapiens [2]) | inhibition (Homo sapiens [3]) | Structure (SMILES)
13 | 630 | 8 | – | CCCCCCCCCC1=C(O)C(=O)C(CCCCC)=C(O)C1=O
14 | 380 | 13 | – | CCCCCCCCCC1=C(O)C(=O)C(CCC)=C(O)C1=O
15 | 920 | 5 | – | CCCCCC1=C(O)C(=O)C(CCCCC)=C(O)C1=O
16 | 750 | 6.5 | – | C=CCC1=C(O)C(=O)C(CCCCCCCCC)=C(O)C1=O
17 | 510 | 10 | – | CCCCCCCC1=C(O)C(=O)C(CCCCCCC)=C(O)C1=O
18 | 180 | 27 | – | CCCCCCCCCC1=C(O)C(=O)C(CCCC)=C(O)C1=O
19 | 580 | 9 | – | CCCCCCC1=C(O)C(=O)C(CCCCCC)=C(O)C1=O
20 | 890 | 5 | – | CCCCCCCCC1=C(O)C(=O)C(CCCCCCCC)=C(O)C1=O
